Test system: 857933-349-R-J2-PDC complex spheroids, viability
Assay: Anticancer human tumor 857933-349-R-J2-PDC patient-derived colon adenocarcinoma cell line growth inhibition [GQUAD]
Settings: for IC50: curve of first compound; for viability, T/C: stronger effect = lower value
In short: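 Tumor cells were grown as complex spheroids with HUVEC endothelial cells and mesenchymal stem cells as stroma. G-quadruplex stabilizers were combined with targeted agents over half-log dilutions from near the clinical Cmax, or from 10 microM.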

[1] = second compound 0.0316 µM, first compound 0.0316 µM
[2] = second compound 0.0316 µM, first compound 0.1 µM
[3] = second compound 0.0316 µM, first compound 0.316 µM
[4] = second compound 0.0316 µM, first compound 1 µM
[5] = second compound 0.0316 µM, first compound 3.16 µM
[6] = second compound 0.0316 µM, first compound 10 µM
[7] = second compound 0.1 µM, first compound 0.0316 µM
[8] = second compound 0.1 µM, first compound 0.1 µM
[9] = second compound 0.1 µM, first compound 0.316 µM
[10] = second compound 0.1 µM, first compound 1 µM
[11] = second compound 0.1 µM, first compound 3.16 µM
[12] = second compound 0.1 µM, first compound 10 µM
[13] = second compound 0.316 µM, first compound 0.0316 µM
[14] = second compound 0.316 µM, first compound 0.1 µM
[15] = second compound 0.316 µM, first compound 0.316 µM
[16] = second compound 0.316 µM, first compound 1 µM
[17] = second compound 0.316 µM, first compound 3.16 µM
[18] = second compound 0.316 µM, first compound 10 µM
[19] = second compound 1 µM, first compound 0.0316 µM
[20] = second compound 1 µM, first compound 0.1 µM
[21] = second compound 1 µM, first compound 0.316 µM
[22] = second compound 1 µM, first compound 1 µM
[23] = second compound 1 µM, first compound 3.16 µM
[24] = second compound 1 µM, first compound 10 µM
[25] = second compound 3.16 µM, first compound 0.0316 µM
[26] = second compound 3.16 µM, first compound 0.1 µM
[27] = second compound 3.16 µM, first compound 0.316 µM
[28] = second compound 3.16 µM, first compound 1 µM
[29] = second compound 3.16 µM, first compound 3.16 µM
[30] = second compound 3.16 µM, first compound 10 µM
[31] = second compound 10 µM, first compound 0.0316 µM
[32] = second compound 10 µM, first compound 0.1 µM
[33] = second compound 10 µM, first compound 0.316 µM
[34] = second compound 10 µM, first compound 1 µM
[35] = second compound 10 µM, first compound 3.16 µM
[36] = second compound 10 µM, first compound 10 µM
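Also: spheroids exposed to compounds for one week before readout.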
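For viability, T/C in this document: percent viability relative to vehicle DMSO wells taken as 100%.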

## C=CCn1c(=O)c2cnc(Nc3ccc(N4CCN(C)CC4)cc3)nc2n1-c1cccc(C(C)(C)O)n1 + Cc1[nH]c2ccc(F)cc2c1-c1nc2c3cccnc3c3ncccc3c2[nH]1
Second compound 0.0316 µM
  IC50: 1930 nM
Second compound 0.1 µM
  IC50: 1920 nM
Second compound 0.316 µM
  IC50: 1470 nM
Second compound 1 µM
  IC50: 1570 nM
Second compound 3.16 µM
  IC50: 960 nM
Second compound 10 µM
  IC50: 1390 nM
[1]
  viability, T/C: 107%
[2]
  viability, T/C: 99.1%
[3]
  viability, T/C: 94.5%
[4]
  viability, T/C: 77%
[5]
  viability, T/C: 28.8%
[6]
  viability, T/C: 27.8%
[7]
  viability, T/C: 105%
[8]
  viability, T/C: 104%
[9]
  viability, T/C: 97.2%
[10]
  viability, T/C: 81.5%
[11]
  viability, T/C: 25.4%
[12]
  viability, T/C: 24%
[13]
  viability, T/C: 107%
[14]
  viability, T/C: 98.1%
[15]
  viability, T/C: 94%
[16]
  viability, T/C: 62.7%
[17]
  viability, T/C: 24.2%
[18]
  viability, T/C: 26%
[19]
  viability, T/C: 98.5%
[20]
  viability, T/C: 86.1%
[21]
  viability, T/C: 86%
[22]
  viability, T/C: 63.4%
[23]
  viability, T/C: 29.6%
[24]
  viability, T/C: 23.9%
[25]
  viability, T/C: 94.8%
[26]
  viability, T/C: 76%
[27]
  viability, T/C: 78.1%
[28]
  viability, T/C: 48.7%
[29]
  viability, T/C: 27.8%
[30]
  viability, T/C: 24.5%
[31]
  viability, T/C: 86.1%
[32]
  viability, T/C: 77.8%
[33]
  viability, T/C: 75.3%
[34]
  viability, T/C: 58.7%
[35]
  viability, T/C: 30%
[36]
  viability, T/C: 24.9%

## CC(C)(O)C1CCC(Nc2ccc3ncc(-c4cccc(C(F)(F)F)c4)n3n2)CC1 (stereo unspecified) + Cc1[nH]c2ccc(F)cc2c1-c1nc2c3cccnc3c3ncccc3c2[nH]1
Second compound 0.0316 µM
  IC50: 761 nM
Second compound 0.1 µM
  IC50: 725 nM
Second compound 0.316 µM
  IC50: 673 nM
Second compound 1 µM
  IC50: 682 nM
Second compound 3.16 µM
  IC50: 657 nM
Second compound 10 µM
  IC50: 707 nM
[1]
  viability, T/C: 107%
[2]
  viability, T/C: 95.8%
[3]
  viability, T/C: 96.4%
[4]
  viability, T/C: 35.7%
[5]
  viability, T/C: 2.35%
[6]
  viability, T/C: 2.26%
[7]
  viability, T/C: 104%
[8]
  viability, T/C: 97.8%
[9]
  viability, T/C: 93%
[10]
  viability, T/C: 33.5%
[11]
  viability, T/C: 2.03%
[12]
  viability, T/C: 1.93%
[13]
  viability, T/C: 104%
[14]
  viability, T/C: 92%
[15]
  viability, T/C: 87.3%
[16]
  viability, T/C: 30.8%
[17]
  viability, T/C: 2.68%
[18]
  viability, T/C: 2.19%
[19]
  viability, T/C: 93.4%
[20]
  viability, T/C: 87.3%
[21]
  viability, T/C: 87.5%
[22]
  viability, T/C: 31.4%
[23]
  viability, T/C: 2.43%
[24]
  viability, T/C: 1.82%
[25]
  viability, T/C: 87.3%
[26]
  viability, T/C: 85.1%
[27]
  viability, T/C: 79.5%
[28]
  viability, T/C: 33.1%
[29]
  viability, T/C: 3.45%
[30]
  viability, T/C: 2.02%
[31]
  viability, T/C: 86.6%
[32]
  viability, T/C: 84.6%
[33]
  viability, T/C: 81.7%
[34]
  viability, T/C: 36.4%
[35]
  viability, T/C: 3.99%
[36]
  viability, T/C: 2.51%

## CCCS(=O)(=O)Nc1ccc(F)c(C(=O)c2c[nH]c3ncc(-c4ccc(Cl)cc4)cc23)c1F + Cc1[nH]c2ccc(F)cc2c1-c1nc2c3cccnc3c3ncccc3c2[nH]1
Second compound 0.0316 µM
  IC50: 5430 nM
Second compound 0.1 µM
  IC50: 5230 nM
Second compound 0.316 µM
  IC50: 5230 nM
Second compound 1 µM
  IC50: 5110 nM
Second compound 3.16 µM
  IC50: 5010 nM
Second compound 10 µM
  IC50: 4740 nM
[1]
  viability, T/C: 101%
[2]
  viability, T/C: 98.1%
[3]
  viability, T/C: 94.7%
[4]
  viability, T/C: 115%
[5]
  viability, T/C: 89.8%
[6]
  viability, T/C: 4.88%
[7]
  viability, T/C: 97.8%
[8]
  viability, T/C: 97.7%
[9]
  viability, T/C: 102%
[10]
  viability, T/C: 105%
[11]
  viability, T/C: 85%
[12]
  viability, T/C: 4.75%
[13]
  viability, T/C: 97.8%
[14]
  viability, T/C: 97.5%
[15]
  viability, T/C: 96%
[16]
  viability, T/C: 94.3%
[17]
  viability, T/C: 84.4%
[18]
  viability, T/C: 5.8%
[19]
  viability, T/C: 97.1%
[20]
  viability, T/C: 85.1%
[21]
  viability, T/C: 90.2%
[22]
  viability, T/C: 82.8%
[23]
  viability, T/C: 81.1%
[24]
  viability, T/C: 6.53%
[25]
  viability, T/C: 84.4%
[26]
  viability, T/C: 74.2%
[27]
  viability, T/C: 79.1%
[28]
  viability, T/C: 74.2%
[29]
  viability, T/C: 82.9%
[30]
  viability, T/C: 6.5%
[31]
  viability, T/C: 82.7%
[32]
  viability, T/C: 85.2%
[33]
  viability, T/C: 80.5%
[34]
  viability, T/C: 84.5%
[35]
  viability, T/C: 73.7%
[36]
  viability, T/C: 6.22%

From PubChem BioAssay AID2060491 (Molecular Pharmacology Branch, DTP, NCI, 2025)
